Measurements published in patent US8299265B2, “Amine derivatives having NPY Y5 receptor antagonistic activity and the uses thereof” (Shionogi & Co., Ltd., priority 2007, dated 2012).

Legend:
[1] = test system: male C57BL/6J mice; test: Inhibition of Y5 agonist-induced food intake in mice; type: in vivo; conditions: Mus musculus, 4 hours after dosing, read-out: Inhibition ratio of Y5 agonist-induced food intake; for inhibition in vivo at 6 mg/kg: unmarked cells
Experimental: Under diethylether anesthesia the skull of male C57BL/6J mice (12-14 week old, 25-30 g) was exposed by making an incision about 1-cm long from external occipital crest to nasal dorsum, and then drilled in the 1-mm lateral position to the left following 1-mm posterior from bregma. After recovery from anesthesia mice were dosed with either 0.5% hydroxypropylmethyl cellulose solution (vehicle, Shin-Etsu Chemical Co., Ltd) or the compounds of this invention suspended in the 0.5% hydroxypropylmethyl cellulose solution. At one hour after the treatment, each animal received saline or a NPY Y5 receptor specific agonist, [cPP^1-7, NPY^19-23, Ala^31, Aib^32, Gln^34]-hPancreatic Polypeptide (0.1 nmol/1.5 μL saline/mouse) through the skull opening using a canula. Residual food was measured at 2 and 4 hours after the treatment.

[2] = test system: high-fat diet-induced obese mice; test: Suppression of body weight gain in high-fat diet-induced obese mice; type: in vivo; conditions: 6 mg/kg b.i.d. for 3 weeks, compared to vehicle
Experimental: Prior to administration of the compounds of this invention, male C57BL/6J mice were given a high-fat diet to induce obese. The high-fat diet-induced obese mice (13-14 week old, body weight 28-33 g) were dosed with 0.5% hydroxypropylmethyl cellulose solution (vehicle, Shin-Etsu Chemical Co., Ltd) or the compounds of this invention suspended in the 0.5% hydroxypropylmethyl cellulose solution twice a day (b.i.d.) for 3 weeks with the same diet. The changes in body weight were monitored daily.

[3] = target: T1, mouse NPY Y5 receptor (Mus musculus, UniProt O70342); test: Affinity for mouse NPY Y5 receptor ([125I] peptide YY binding, CHO cell membranes); conditions: membranes of CHO cells expressing mouse NPY Y5 receptor
T1 construct: expressed in transfected cells; membranes used
T1 sequence (O70342 1-466): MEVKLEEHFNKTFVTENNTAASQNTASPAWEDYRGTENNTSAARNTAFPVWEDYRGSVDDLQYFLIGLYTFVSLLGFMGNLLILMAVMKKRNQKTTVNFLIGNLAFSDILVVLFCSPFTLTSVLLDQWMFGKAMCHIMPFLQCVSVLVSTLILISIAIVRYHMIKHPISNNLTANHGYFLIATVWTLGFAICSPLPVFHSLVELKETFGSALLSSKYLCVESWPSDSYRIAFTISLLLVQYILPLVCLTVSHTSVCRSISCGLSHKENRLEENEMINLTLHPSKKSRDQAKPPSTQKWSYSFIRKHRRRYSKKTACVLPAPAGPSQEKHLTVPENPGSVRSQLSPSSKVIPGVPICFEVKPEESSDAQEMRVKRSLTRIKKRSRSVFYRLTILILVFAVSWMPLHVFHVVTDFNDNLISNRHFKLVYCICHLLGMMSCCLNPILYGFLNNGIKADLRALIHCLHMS
From the text: cDNA sequence encoding a mouse NPY Y5 receptor (Biochim. Biophys. Acta 1328, 83-89, 1997) was cloned in a vector (pME18S, Takebe et al. Mol. Cell. Biol. 8, 466-472). The obtained expression vector was transfected into CHO cells as a host by using Lipofect AMINE reagent (Trademark, Gico BRL Co., Ltd.) according to the instruction manual. The cells that stably express NPY Y5 receptor were obtained.
The membranes prepared from the CHO cells expressing NPY Y5 receptor, the compound of this invention and 30,000 cpm [^125I] peptide YY (60 pM of final concentration: Amersham) were incubated in the assay buffer (20 mM HEPES-Hanks buffer containing 0.1% bovine serum albumin, pH 7.4) at 25° C. for 2 hours, and then the membrane was filtered from the mixture through a glassfilter (GF/C) presoaked with 1% polyethyleneimine. After washing with 50 mM Tris-HCl buffer (pH 7.4), radioactivity retained on the filters was quantified with a gamma counter.
Nonspecific binding was defined as the amount of radioactivity bound to the membranes after incubation in the presence of 200 nM of peptide YY. The 50% inhibitory concentration of the test compound against the specific peptide YY binding (IC50 value) was calculated (Inui, A. et al. Endocrinology 131, 2090-2096 (1992)).

[4] = target: T2, P-gp (Mus musculus, UniProt P21447); test: Potential for drug-drug interactions through P-gp in vivo (Kp with or without cyclosporin A); conditions: mice, Kp with versus without cyclosporin A (20 mg/kg)
T2 construct: from tissue; host or cells: living mice (Jcl; C57BL/6J, male, 7 weeks), brain / blood-brain barrier
T2 sequence (P21447 whole entry): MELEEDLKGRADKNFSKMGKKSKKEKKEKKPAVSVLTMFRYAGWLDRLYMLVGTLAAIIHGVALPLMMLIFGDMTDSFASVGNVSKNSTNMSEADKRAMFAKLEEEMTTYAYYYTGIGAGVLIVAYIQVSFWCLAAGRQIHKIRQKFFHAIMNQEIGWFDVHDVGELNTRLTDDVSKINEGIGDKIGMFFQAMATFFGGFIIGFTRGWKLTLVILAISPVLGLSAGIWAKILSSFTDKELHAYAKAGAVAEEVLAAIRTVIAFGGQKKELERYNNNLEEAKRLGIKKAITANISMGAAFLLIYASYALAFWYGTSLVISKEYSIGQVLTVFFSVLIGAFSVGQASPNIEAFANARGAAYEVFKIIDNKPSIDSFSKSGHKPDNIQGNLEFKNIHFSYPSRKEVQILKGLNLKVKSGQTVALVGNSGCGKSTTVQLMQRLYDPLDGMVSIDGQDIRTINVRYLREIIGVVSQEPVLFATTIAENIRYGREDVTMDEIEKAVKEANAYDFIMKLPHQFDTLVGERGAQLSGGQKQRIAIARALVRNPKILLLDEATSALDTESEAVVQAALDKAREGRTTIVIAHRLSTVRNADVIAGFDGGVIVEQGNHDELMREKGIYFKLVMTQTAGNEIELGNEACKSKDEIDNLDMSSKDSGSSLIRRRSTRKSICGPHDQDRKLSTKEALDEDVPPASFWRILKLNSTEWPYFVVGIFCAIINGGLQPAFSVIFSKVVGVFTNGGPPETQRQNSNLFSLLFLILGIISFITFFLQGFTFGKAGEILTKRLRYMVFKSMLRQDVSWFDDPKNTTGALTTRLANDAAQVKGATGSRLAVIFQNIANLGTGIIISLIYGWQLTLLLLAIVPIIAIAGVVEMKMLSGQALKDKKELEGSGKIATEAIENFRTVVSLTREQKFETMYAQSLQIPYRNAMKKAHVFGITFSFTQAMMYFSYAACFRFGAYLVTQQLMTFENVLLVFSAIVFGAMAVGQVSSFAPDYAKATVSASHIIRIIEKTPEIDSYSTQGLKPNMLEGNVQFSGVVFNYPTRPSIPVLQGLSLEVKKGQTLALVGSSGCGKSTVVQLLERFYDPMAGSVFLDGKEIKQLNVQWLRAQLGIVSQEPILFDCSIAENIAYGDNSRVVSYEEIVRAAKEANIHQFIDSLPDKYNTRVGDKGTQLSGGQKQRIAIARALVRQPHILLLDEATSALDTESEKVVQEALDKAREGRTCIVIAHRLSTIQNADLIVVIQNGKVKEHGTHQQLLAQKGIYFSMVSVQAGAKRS
Experimental: Transportability of the compounds of this invention through the blood-brain barrier (blood-brain partition coefficient; Kp) in mice (Jcl; C57BL/6J mice, ♂, 7 weeks) was defined from the difference in concentration of the compounds between in plasma and in brain after intravenous administration of the compounds (0.5 mg/2 mL/kg). The brain Kp value of Compound (I-72) (Kp Cont.) was 1.29 showing high transportability through the blood-brain barrier.
To examine the potential for drug-drug interactions through P-gp in vivo, the Kp values of compounds of this invention with (KpCSA) or without (KpCont.) cyclosporin A (20 mg/kg), a P-gp inhibitor, were calculated. The KpCSA value of Compound (I-72) was 1.14, and the calculated KpCSA KpCont. ratio was 0.9.
On the other hand the potential for drug-drug interactions through P-pg of amide compound B which has similar structure of Compound (I-72) was also examined in mice. The KpCont. and KpCSA were 0.04 and 0.84, respectively.

SMILES	inhibition in vivo at 6 mg/kg [1] [%]	melting point [°C]	also measured
CC(C)S(=O)(=O)NC[C@H]1CC[C@H](Nc2nc3cccc(F)c3s2)CC1 [Ij-153]	73		
CCC(C)S(=O)(=O)NC[C@H]1CC[C@H](Nc2nc3cc(F)ccc3o2)CC1 (stereo partly drawn) [Ij-160]			inhibition in vivo at 1.5 mg/kg [1]: 36.6%
CC(C)S(=O)(=O)NC[C@H]1CC[C@H](Nc2nc3cc(Cl)ccc3s2)CC1 [Ij-154]	81.3	166 to 167	
CCS(=O)(=O)NC[C@H]1CC[C@H](Nc2ccn(-c3ccccc3F)n2)CC1 [Ij-112]			Body weight gain [2]: suppresses Body Weight Gain
CC(C)(C)S(=O)(=O)NC[C@H]1CC[C@H](Nc2nc3ccc(F)cc3o2)CC1 [Ij-159]	83.2		
CCC(C)S(=O)(=O)NC[C@H]1CC[C@H](Nc2nc3ccc(F)cc3o2)CC1 (stereo partly drawn) [Ij-161]		173 to 174	inhibition in vivo at 1.5 mg/kg [1]: 15.8%
CCS(=O)(=O)NC[C@H]1CC[C@H](Nc2ccc(-c3ccccc3)cn2)CC1 [Ij-4]	88.2		
CC(C)S(=O)(=O)NC[C@H]1CC[C@H](Nc2nc3cc(F)ccc3o2)CC1 [Ij-155]			inhibition in vivo at 1.5 mg/kg [1]: 56.1%
CC(C)(C)S(=O)(=O)NC[C@H]1CC[C@H](Nc2ccn(-c3ccccc3F)n2)CC1 [Ij-110]	90.3		
CCS(=O)(=O)N[C@H]1CC[C@H](CNc2cc(-c3ccccc3)on2)CC1 [Ii-44]			IC50 [3]: 3.4 nM
CC(C)S(=O)(=O)NC[C@H]1CC[C@H](Nc2nc3ccc(F)cc3o2)CC1 [Ij-156]		170 to 171	inhibition in vivo at 12.5 mg/kg ([1]; **Dose: 12.5 mg/kg): 90.4%
CCS(=O)(=O)NC[C@H]1CC[C@H](Nc2nc3ccccc3o2)CC1 [Ij-150]	25.3	170 to 171	
CC(C)S(=O)(=O)NC[C@H]1CC[C@H](Nc2nc3ccc(F)cc3s2)CC1 [Ij-152]		151 to 152	inhibition in vivo at 1.5 mg/kg [1]: 62.6%
C[C@@H]1CN(c2ccc(NC(=O)[C@H]3CC[C@H](NS(=O)(=O)C(C)(C)C)CC3)cc2)C[C@H](C)O1 [amide compound B, reference compound]			KpCSA/KpCont. ratio [4]: 20.5
CC(C)(C)S(=O)(=O)NC[C@H]1CC[C@H](Nc2nc3cc(F)ccc3o2)CC1 [Ij-158]	70.5	220 to 221	
C[C@@H]1CN(c2ccc(NC[C@H]3CC[C@H](NS(=O)(=O)C(C)(C)C)CC3)cc2)C[C@H](C)O1 [Compound I-72]			KpCSA/KpCont. ratio [4]: 0.9
Cn1c(=O)oc2cc(NC[C@H]3CC[C@H](NS(=O)(=O)C(C)(C)C)CC3)cc(F)c21 [Ii-45]	76.2		Body weight gain [2]: suppresses Body Weight Gain
CC(C)S(=O)(=O)NC[C@H]1CC[C@H](Nc2nc3cc(F)ccc3s2)CC1 [Ij-151]		165 to 166	inhibition in vivo at 1.5 mg/kg [1]: 78.4%
CC(C)S(=O)(=O)N[C@H]1CC[C@H](CNc2cc(F)cc(N3CCOCC3)c2)CC1 [Ii-55]	64.3		
